Test results as given in ChEMBL document CHEMBL1201862, “PubChem BioAssay data set” (2004).
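Dose response: 5 concentrations. Exposure: 48 h. Format: 96-well plates. Endpoint: linear interpolation; highest concentration if not reached. At the GI50, growth is halved.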 Activity calls are given as the source filed them. Rule as the data show it: active = GI50 up to about 1.1 µM and inactive = higher.

Tests used:
Assay in all cases: NCI anticancer screen, dose series, 48 h
SK-OV-3 = system: SK-OV-3
MOLT-4 = system: MOLT-4
U-251 = system: U-251
OVCAR-8 = system: OVCAR-8
SF-295 = system: SF-295
SNB-19 = system: SNB-19
COLO 205 = system: COLO 205
LXFL 529 = system: LXFL 529
Malme-3M = system: Malme-3M
A549 = system: A549
UACC-62 = system: UACC-62
OVCAR-3 = system: OVCAR-3
NCI-H460 = system: NCI-H460
SF-268 = system: SF-268
NCI-H226 = system: NCI-H226
SNB-75 = system: SNB-75
NCI-H522 = system: NCI-H522
Hs-578T = system: Hs-578T
BT-549 = system: BT-549
MDA-MB-435 = system: MDA-MB-435

Row | Structure (SMILES) | GI50 (SK-OV-3) | GI50 (MOLT-4) | GI50 (U-251) | GI50 (OVCAR-8) | GI50 (SF-295) | GI50 (SNB-19) | GI50 (COLO 205) | GI50 (LXFL 529) | GI50 (Malme-3M) | GI50 (A549) | GI50 (UACC-62) | GI50 (OVCAR-3) | GI50 (NCI-H460) | GI50 (SF-268) | GI50 (NCI-H226) | GI50 (SNB-75) | GI50 (NCI-H522) | GI50 (Hs-578T) | GI50 (BT-549) | GI50 (MDA-MB-435)
1 | COc1ccc(O)cc1C=O | > 100 µM (inactive) | 67.6 µM (inactive) | > 100 µM (inactive) | > 100 µM (inactive) | > 100 µM (inactive) | > 100 µM (inactive) | > 100 µM (inactive) | 77.1 µM (inactive) | 46.3 µM (inactive) | > 100 µM (inactive) | 32.7 µM (inactive) | > 100 µM (inactive) | > 100 µM (inactive) | > 100 µM (inactive) | – | – | – | – | – | –
2 | Oc1c2c(nc3cc4c(cc13)OCO4)-c1ccccc1CC2 | – | > 100 µM (inactive) | > 100 µM (inactive) | > 100 µM (inactive) | > 100 µM (inactive) | > 100 µM (inactive) | > 100 µM (inactive) | > 100 µM (inactive) | > 100 µM (inactive) | > 100 µM (inactive) | > 100 µM (inactive) | > 100 µM (inactive) | > 100 µM (inactive) | > 100 µM (inactive) | > 100 µM (inactive) | 23.6 µM (inactive) | – | – | – | –
3 | N/N=C1\c2ccccc2C2/C(=N\N)c3ccccc3C12 (stereo not given) | > 100 µM (inactive) | > 100 µM (inactive) | > 100 µM (inactive) | > 100 µM (inactive) | > 100 µM (inactive) | > 100 µM (inactive) | > 100 µM (inactive) | > 100 µM (inactive) | > 100 µM (inactive) | > 100 µM (inactive) | > 100 µM (inactive) | > 100 µM (inactive) | > 100 µM (inactive) | > 100 µM (inactive) | – | 56.1 µM (inactive) | > 100 µM (inactive) | – | – | –
4 | Cn1ncnc1CCc1ccccc1 | > 100 µM (inactive) | > 100 µM (inactive) | > 100 µM (inactive) | > 100 µM (inactive) | > 100 µM (inactive) | – | > 100 µM (inactive) | > 100 µM (inactive) | > 100 µM (inactive) | > 100 µM (inactive) | > 100 µM (inactive) | > 100 µM (inactive) | > 100 µM (inactive) | > 100 µM (inactive) | > 100 µM (inactive) | > 100 µM (inactive) | > 100 µM (inactive) | – | – | –
5 | N#CCCN(CCC#N)c1ccc(/C=C2\N=C(COc3ccc(Cl)cc3Cl)OC2=O)cc1 | > 100 µM (inactive) | > 100 µM (inactive) | > 100 µM (inactive) | > 100 µM (inactive) | > 100 µM (inactive) | > 100 µM (inactive) | > 100 µM (inactive) | > 100 µM (inactive) | > 100 µM (inactive) | > 100 µM (inactive) | > 100 µM (inactive) | > 100 µM (inactive) | > 100 µM (inactive) | > 100 µM (inactive) | – | 71.8 µM (inactive) | 29.9 µM (inactive) | – | – | –
6 | N=C(c1ccccc1)N1CCCCC1 | – | – | > 100 µM (inactive) | > 100 µM (inactive) | > 100 µM (inactive) | > 100 µM (inactive) | > 100 µM (inactive) | > 100 µM (inactive) | 49 µM (inactive) | > 100 µM (inactive) | – | – | > 100 µM (inactive) | > 100 µM (inactive) | > 100 µM (inactive) | > 100 µM (inactive) | > 100 µM (inactive) | – | – | –
7 | C[C@@H]1C[C@]2(C[C@@H](C)C3[C@@H](CC4(C)[C@@H]5CCC6C(C)(C)OC(=O)C=C[C@]67C[C@@]5(CC[C@]34C)OO7)O2)OC1=O (stereo not given in full) | 43.6 µM (inactive) | – | 73.3 µM (inactive) | 67.5 µM (inactive) | 36 µM (inactive) | 49.4 µM (inactive) | > 100 µM (inactive) | 31.6 µM (inactive) | 37.9 µM (inactive) | > 100 µM (inactive) | 21.2 µM (inactive) | 24.1 µM (inactive) | 86.7 µM (inactive) | – | 24.8 µM (inactive) | 18.4 µM (inactive) | 29.6 µM (inactive) | – | – | –
8 | COC(=O)CC[C@]12C[C@]13CC[C@]1(C)C4C(C)C[C@]5(CC(C)C(=O)O5)OC4CC1(C)C3CCC2C(C)(C)O (stereo not given in full) | > 100 µM (inactive) | – | 62.2 µM (inactive) | 41.7 µM (inactive) | > 100 µM (inactive) | 51.2 µM (inactive) | 74.8 µM (inactive) | 55.2 µM (inactive) | > 100 µM (inactive) | > 100 µM (inactive) | > 10 µM (inactive) | 76 µM (inactive) | 68.7 µM (inactive) | 81.1 µM (inactive) | – | 75 µM (inactive) | 62.1 µM (inactive) | – | – | –
9 | CC(C)(C)c1ccccc1NS(=O)(=O)c1ccccc1 | > 100 µM (inactive) | 38 µM (inactive) | > 100 µM (inactive) | > 100 µM (inactive) | 86.1 µM (inactive) | – | – | > 100 µM (inactive) | > 100 µM (inactive) | 59.8 µM (inactive) | > 100 µM (inactive) | 71.4 µM (inactive) | 92 µM (inactive) | – | 21.9 µM (inactive) | > 100 µM (inactive) | – | – | – | –
10 | Nc1nc(-c2ccco2)cc(-c2ccco2)n1 | – | > 100 µM (inactive) | > 100 µM (inactive) | > 100 µM (inactive) | > 100 µM (inactive) | 41.8 µM (inactive) | > 100 µM (inactive) | > 100 µM (inactive) | > 100 µM (inactive) | > 100 µM (inactive) | > 100 µM (inactive) | > 100 µM (inactive) | > 100 µM (inactive) | > 100 µM (inactive) | 71.3 µM (inactive) | 64.1 µM (inactive) | > 100 µM (inactive) | – | – | –
11 | C/C=C(/CCC1NCCC2c3ccccc3NC12)[Si](C)(C)C (stereo not given) | 15.7 µM (inactive) | 3.17 µM (inactive) | 12.8 µM (inactive) | 7.98 µM (inactive) | 15.6 µM (inactive) | 15.5 µM (inactive) | 1.69 µM (inactive) | 3.65 µM (inactive) | – | 14.6 µM (inactive) | 13.5 µM (inactive) | 11.4 µM (inactive) | 3.3 µM (inactive) | 9.31 µM (inactive) | 13.3 µM (inactive) | 9.73 µM (inactive) | 16 µM (inactive) | – | – | –
12 | CCOc1ccccc1/N=N/c1ccc2oc(=O)c(C(=O)Nc3cccc(C)c3)cc2c1 | 49.7 µM (inactive) | 19.9 µM (inactive) | 25.6 µM (inactive) | 24.7 µM (inactive) | 29.6 µM (inactive) | 20.3 µM (inactive) | 26.7 µM (inactive) | 26.1 µM (inactive) | 29.9 µM (inactive) | 42.3 µM (inactive) | 26.2 µM (inactive) | 20 µM (inactive) | – | 29.4 µM (inactive) | – | 37 µM (inactive) | 17.9 µM (inactive) | – | – | –
13 | CC1OC(OC2C(O[C@H]3CC[C@@]4(C)C(=CC[C@H]5[C@@H]6C[C@@H]7O[C@]8(CC[C@@H](C)CO8)[C@@H](C)[C@@H]7[C@@]6(C)CC[C@@H]54)C3)OC(CO)C(OC3OC(CO)C(O)C3O)C2O)C(O)C(O)C1O (stereo not given in full) | 0.94 µM (active) | 0.785 µM (active) | 0.619 µM (active) | 0.535 µM (active) | 0.745 µM (active) | 0.762 µM (active) | 0.6 µM (active) | – | 0.877 µM (active) | 0.634 µM (active) | 0.805 µM (active) | 0.918 µM (active) | 0.438 µM (active) | 0.841 µM (active) | 0.867 µM (active) | 0.724 µM (active) | 0.995 µM (active) | 0.805 µM (active) | 0.975 µM (active) | 0.869 µM (active)
14 | O/N=C\c1c2c(cc3c1CCC3)CCC2 | > 100 µM (inactive) | 25 µM (inactive) | > 100 µM (inactive) | > 100 µM (inactive) | > 100 µM (inactive) | > 100 µM (inactive) | > 100 µM (inactive) | – | > 100 µM (inactive) | > 100 µM (inactive) | > 100 µM (inactive) | > 100 µM (inactive) | > 100 µM (inactive) | > 100 µM (inactive) | > 100 µM (inactive) | 36.5 µM (inactive) | > 100 µM (inactive) | > 100 µM (inactive) | > 100 µM (inactive) | > 100 µM (inactive)
15 | CC1=NN(c2ccccc2)C(=O)/C1=C1\SC(c2ccccc2)(c2ccccc2)c2ccccc21 | > 100 µM (inactive) | > 100 µM (inactive) | 3.78 µM (inactive) | > 100 µM (inactive) | > 100 µM (inactive) | > 100 µM (inactive) | > 100 µM (inactive) | – | > 100 µM (inactive) | > 100 µM (inactive) | > 100 µM (inactive) | > 100 µM (inactive) | > 100 µM (inactive) | > 100 µM (inactive) | > 100 µM (inactive) | > 100 µM (inactive) | > 100 µM (inactive) | > 100 µM (inactive) | > 100 µM (inactive) | > 100 µM (inactive)
16 | CC(C)Oc1c(N(Cc2ccccc2)c2ccccc2C2SCCCS2)c(=O)c1=O | 3.39 µM (inactive) | 3.63 µM (inactive) | 4.4 µM (inactive) | 3.61 µM (inactive) | 2.2 µM (inactive) | 3.9 µM (inactive) | 3.07 µM (inactive) | – | 2.9 µM (inactive) | 5.36 µM (inactive) | 4.89 µM (inactive) | 2.33 µM (inactive) | 3.69 µM (inactive) | 5.96 µM (inactive) | 6.05 µM (inactive) | 2.51 µM (inactive) | 1.88 µM (inactive) | 3.44 µM (inactive) | 6.38 µM (inactive) | 2.74 µM (inactive)
17 | CCOc1cc2c(cc1O)C(=O)C[C@@H]1[C@@H]2CC[C@]2(C)[C@@H](O)CC[C@@H]12 | 0.463 µM (active) | 0.172 µM (active) | 0.173 µM (active) | 0.321 µM (active) | 0.158 µM (active) | 0.189 µM (active) | 20.5 µM (inactive) | – | 0.294 µM (active) | 0.877 µM (active) | 0.0682 µM (active) | 0.092 µM (active) | 0.0982 µM (active) | 0.308 µM (active) | 0.561 µM (active) | 0.106 µM (active) | 0.0508 µM (active) | 0.163 µM (active) | 0.15 µM (active) | 0.0197 µM (active)
